In PubChem BioAssay AID179 (DTP/NCI, 2004):
The source made the active and inactive calls.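 The calls were made as follows: active = compounds giving half or more protection of infected cells from virus-caused growth loss, again on retest; inactive = the rest.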 Where a SMILES comes first, the peptide text is derived from it.

Tested on: CEM cells HIV-1 protection, formazan growth assay
Assay: NCI AIDS Antiviral Assay
Conditions: for IC50: measured here: growth of uninfected CEM cells
Procedure, shortened: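 Protection of CEM cells against HIV-1 was scored from cell growth (soluble formazan) across five concentrations, with parallel uninfected cells. Lack of protection may reflect toxicity.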

SMILES | EC50 | IC50 | outcome
CCOP(=O)(OCC)/C(C#N)=C/c1ccc(Br)cc1 | > 275 µM | 162 µM | –
COC(=O)C12c3[nH]c4ccccc4c3CCN1CC(=O)C2C(=O)OCc1ccccc1 (stereo unspecified) | > 91.2 µM | 57.5 µM | –
CCOC(=O)Cn1c(=O)c2nc(SC)sc2n(CC)c1=S | – | – | inactive
CCCCCCCCOCC(CO)OCCCCCCCC (stereo unspecified) | > 251 µM | 132 µM | –
COc1ccccc1C=NC12CC3CC(CC(C3)C1)C2 | > 132 µM | 110 µM | –
NS(=O)(=O)c1ccc(NC(=O)c2cccnc2Nc2cccc(Cl)c2)cc1 | – | – | inactive
COc1ccccc1N1C(=O)C2C3c4ccccc4C(OC(C)=O)(c4ccccc43)C2C1=O (stereo unspecified) | > 200 µM | > 200 µM | –
CC/C(=C/OC)P1(=O)OC(C)(C)CN1C(C)(C)C (stereo unspecified) | > 200 µM | 151 µM | –
C[N+]1(CC(=O)O)C2CCC1CC(O)C2 (stereo unspecified) | > 200 µM | > 200 µM | –
Cc1cc(C)c(C#N)c(SCC(=O)c2sc3c(C#N)c(C)cc(C)[n+]3c2[O-])n1 | > 6.61 µM | > 6.61 µM | –
COc1ccc(-c2cc(-c3cc(OC)c(OC)c(OC)c3)cc(-c3cc4ccccc4oc3=O)n2)cc1 | > 200 µM | 155 µM | –
CC1=C2CC(C)(C)/C=C\C(=O)/C(C)=C\C3=C[C@H](C)C[C@]3(O2)C1=O | > 0.2 µM | 0.0955 µM | –
CCCC(NCCCCCCNC(CCC)C(=O)O)C(=O)O (stereo unspecified) | > 525 µM | > 525 µM | –
COc1ccc2[nH]c3c(C)c4ccnc(NCCCN(C)CCCN)c4c(C)c3c2c1 | > 1 µM | 0.38 µM | –
CCOc1ccccc1NC(=O)C(=O)c1c(O)c2ccc(O)cc2oc1=O | > 490 µM | 182 µM | –
CCCCCC=C(c1cc(Cl)c(OC)c(C(=O)NO)c1)c1cc(Cl)c(OC)c(C(=O)NO)c1 | > 200 µM | 1.95 µM | –
COC1/C=C/OC2(C)Oc3c(C)c(O)c4c(O)c(c(/C=N/N5CCN(Cc6ccccc6)CC5)c(O)c4c3C2=O)NC(=O)C(C)=C/C=C/C(C)C(O)C(C)C(O)C(C)C(OC(C)=O)C1C (stereo unspecified) | > 200 µM | 10.2 µM | –
NNC(=O)c1n[nH]nc1SSc1n[nH]nc1C(=O)NN | – | – | inactive
C=C(Br)CN1CCC2(c3ccccc3)C(O)C([Se]c3ccccc3)CCC12 (stereo unspecified) | > 27.5 µM | > 27.5 µM | –
COc1cc(C2(C)SCCCS2)cc(OC)c1OC | > 182 µM | > 182 µM | –
Nc1ncnc2c1ncn2CC(=O)NCCO | > 200 µM | > 200 µM | –
COC(C(=O)NCCCCNC(=O)C(OC)c1ccccc1)c1ccccc1 (stereo unspecified) | – | – | inactive

SMILES | EC50 | IC50 | outcome
COc1ccc(NCc2cnc3nc(N)nc(N)c3c2C)cc1 | > 200 µM | 0.437 µM | –
CC(NC(CC12CC3CC(CC(C3)C1)C2)C(N)=O)c1ccccc1 (stereo unspecified) | > 200 µM | 34.7 µM | –
N#CCCn1c(CCC(=O)Nc2ccc(Cl)cc2Cl)n[nH]c1=S | 66.1 µM | 97.7 µM | –
CN(N)c1cnn(-c2ccccc2)c(=O)c1Cl | > 200 µM | > 200 µM | –
[N-]=[N+]=NC1=C(c2ccccn2)C(=O)c2cccc3cccc1c23 | > 200 µM | 4.17 µM | –
COc1ccc(/C=C/C(=O)c2sc(-n3nc(-c4ccccc4)cc3-c3ccccc3)nc2C)cc1 | > 11 µM | > 11 µM | –
COc1cc(-c2cc(=O)c3c(O)cc(O)cc3o2)cc(OC)c1OC | > 64.6 µM | > 64.6 µM | –
CS(=O)(=O)c1ccc(C(=O)O[C@@H]2C(=O)N3CC[C@H]4OC(O)[C@@H]2[C@H]43)cc1 (stereo partly specified) | > 200 µM | > 200 µM | –
N#Cc1cc2c(n(C3OC(CO)C(O)C(O)C3O)c1=S)CCC2 (stereo unspecified) | > 200 µM | > 200 µM | –
CCC(C)C(NC(=O)C(N)CCC(=O)O)C(=O)NC(CCCCN)C(=O)NCC(=O)NC(C(=O)NC(C(=O)NC(CC(N)=O)C(=O)NC(CC(C)C)C(=O)NCC(=O)NC(CCCCN)C(=O)O)C(C)O)C(C)O (stereo unspecified) (H-EIKGTTNLGK-OH; configuration not given here) | – | – | inactive
Cc1ccc([S@](=O)c2occc2C=O)cc1 | > 20 µM | 1.82 µM | –
CC1=C(C(=O)Nc2ccccc2C)C(c2ccc(C3C(C(=O)Nc4ccccc4C)=CNC=C3C(=O)Nc3ccccc3C)cc2)C(C(=O)Nc2ccccc2C)=C(C)N1 | – | – | inactive
COC1c2ccccc2C2C(Cl)(Cl)C23c2ccccc2C13 (stereo unspecified) | > 12 µM | > 12 µM | –
Oc1[nH]c2ccccc2c1N=NC(=S)N1CCCCC1 | > 200 µM | 1.02 µM | –
CC(=O)OC1CC2CCC3C(CCC4(C)C3CC([N+]3(C)CCCCC3)C4OC(C)=O)C2(C)CC1[N+]1(C)CCCCC1 (stereo unspecified) | > 200 µM | > 200 µM | –
Oc1ccc(CCl)c2cccnc12 | > 562 µM | 10.2 µM | –
CC[C@H]1CN2CCc3cc(OC)c(OC)cc3[C@@H]2C[C@@H]1C[C@H]1NCCc2cc(O)c(OC)cc21 | – | – | inactive
COC(=O)C1C2C=CC(C2)C1(C(=O)OC)S(=O)CC12CCC(CC1O)C2(C)C (stereo unspecified) | > 229 µM | > 229 µM | –
COC(=O)C1(CC(=O)OC(C)(C)C)NCCc2c1[nH]c1ccccc21 (stereo unspecified) | > 115 µM | 95.5 µM | –
CC1=C(C)CC2(CC1)C(=O)NC(=O)NC2=O | > 832 µM | > 832 µM | –
O=C1C2CCN(CC2)C1Cn1cnc2c(Cl)ncnc21 (stereo unspecified) | – | – | inactive
O=[N+]([O-])c1cccc2nc3ccccc3c(NCCC[N+]3([O-])CCCCC3)c12 | > 0.2 µM | 0.126 µM | –

SMILES | EC50 | IC50 | outcome
CN(C)c1ccc(C=Nc2ccc(/C=C3\C=Cc4ccccc43)cc2)cc1 | > 20.4 µM | > 20.4 µM | –
COC1=C(C)C(=O)c2nc(COC(C)=O)ccc2C1=O | – | – | inactive
CC1(C)Oc2ccc3c(=O)c4ccccc4oc3c2C1C(=O)O (stereo unspecified) | > 200 µM | > 200 µM | –
CCSSC1(C)C(=O)N2CCCC2C(=O)N1C (stereo unspecified) | > 200 µM | 11.5 µM | –
COC(=O)c1sc2nc(Nc3ccccc3)c(=Nc3ccccc3)sc2c1C | > 200 µM | > 200 µM | –
COC(=N)C(C)C | > 1820 µM | > 1820 µM | –
CCCCc1ccc(-n2sc3ncc([N+](=O)[O-])cc3c2=O)cc1 | > 17 µM | 10 µM | –
O=C1SS(=O)c2ccccc21 (stereo unspecified) | > 200 µM | 95.5 µM | –
O=S(=O)(C/C(=N\O)c1ccccc1)c1ccccc1 | > 324 µM | 182 µM | –
C/C(=N\N=C(N)N)C(CN1CCOCC1)C(c1ccccc1)c1c(O)c2ccccc2oc1=O (stereo unspecified) | > 52.5 µM | > 52.5 µM | –
Brc1ccc(N2N=NC3CNCC32)cc1 (stereo unspecified) | > 26.9 µM | > 26.9 µM | –
C(=N\Nc1ccccc1)/c1nc2ccccc2nc1/C=N/Nc1ccccc1 | > 5.5 µM | > 5.5 µM | –
c1ccc(N2N=C(c3ccco3)CC2c2ccco2)cc1 (stereo unspecified) | > 25.7 µM | > 25.7 µM | –
CCOC(=O)C1SC(=Nc2ccc(C)c(C)c2)N=C1C (stereo unspecified) | > 18.2 µM | > 18.2 µM | –
NCCCOc1ccc(-c2c3nc(cc4ccc([nH]4)c(-c4ccc(OCCCN)cc4)c4nc(cc5ccc2[nH]5)C=C4)C=C3)cc1 | 2.4 µM | 3.31 µM | –
O=C(CCCN1CCC2(CC1)OC(=O)N(c1ccccc1)C2=O)c1ccccc1 | > 200 µM | > 200 µM | –
N#C/C(=C\c1cccc([N+](=O)[O-])c1)C(=O)c1ccccc1 | > 79.4 µM | 40.7 µM | –
N#Cc1cccc(C2ON=C(c3ccc([N+](=O)[O-])cc3)N2C23CC4CC(CC(C4)C2)C3)c1 (stereo unspecified) | > 200 µM | > 200 µM | –
Cc1cc(C)c(SSc2nnnn2C)c(C)c1 | > 200 µM | 19.5 µM | –
CCC[CH2][Sn]([CH2]CCC)([O]N(C)C(=O)c1ccc(Br)cc1)[O]N(C)C(=O)c1ccc(Br)cc1 | > 10.5 µM | 1.78 µM | –
CC(=O)N1CC[N+](C)(CCCCN2c3ccccc3Sc3cc(N=[N+]=[N-])ccc32)CC1 | > 200 µM | 81.3 µM | –
CC1(C)C2CCC1C(=O)C(C=O)C2 (stereo unspecified) | > 200 µM | > 200 µM | –

SMILES | EC50 | IC50 | outcome
Fc1cccc2c(=S)cn[nH]c12 | > 200 µM | 186 µM | –
CC1=CC(=O)N2[C@H](OC[C@@H]2C(C)C)O1 | > 1260 µM | > 1260 µM | –
CC(C)OP(=O)(OC(C)C)C([CH2][Sn]([CH3])([CH3])[Br])P(=O)(OC(C)C)OC(C)C | > 200 µM | 8.71 µM | –
CN1C(=O)C2CCC1n1c(=O)n(-c3ccccc3)c(=O)n12 (stereo unspecified) | – | – | inactive
O=[N+]([O-])c1c(Cl)cccc1-c1c[nH]cc1Cl | > 263 µM | 61.7 µM | –
CNC(=O)O/N=C(C)/C(C)=N/OC(=O)NC | – | – | inactive
O=[N+]([O-])C1=Cc2cc(Cl)ccc2OC1c1cccc2ccccc12 (stereo unspecified) | > 2 µM | 0.977 µM | –
CN(C)C(=O)CC(C(=O)O)c1c[nH]c2ccccc12 (stereo unspecified) | > 309 µM | > 309 µM | –
CCOC(=O)c1c(N2CCOCC2)[nH]c(=O)c(C(c2c(O)c(C(=O)OCC)c(N3CCOCC3)[nH]c2=O)C(C)C)c1O | > 200 µM | > 200 µM | –
CCN1CC2(C)CC[C@@H](OC)C34[C@@H]2[C@H](OC(C)=O)C2(OCO[C@@]25C[C@H](OC)C2C[C@]3(O)[C@@H]5[C@H]2O)[C@H]14 | – | – | inactive
C[n+]1c2ccccc2n2c3ccccc3c(NCCCN3CCOCC3)c(C#N)c21 | > 20 µM | 0.676 µM | –
Cc1nc(N)nn1C1OCC(O)C(O)C1O (stereo unspecified) | – | – | inactive
COc1ccccc1NC(=S)N/C=C(\C#N)S(=O)(=O)c1ccc(C)cc1 | > 200 µM | > 200 µM | –
Cc1noc2cccc(O)c12 | – | – | inactive
CS(=O)(=O)c1ccc(N2CC2)nn1 | > 200 µM | 89.1 µM | –
N#CC(C(=O)C(=O)C(C#N)c1ccc(Br)cc1)c1ccc(Br)cc1 (stereo unspecified) | – | – | inactive
Cc1ccccc1OP(=S)(Oc1ccccc1C)Oc1ccccc1C | > 200 µM | 35.5 µM | –
O=C(O)C1(c2ccccc2)CCCNCC1 (stereo unspecified) | > 6170 µM | > 6170 µM | –
O/N=C1/C(=C/c2ccccc2)CCCC1C(NO)c1ccccc1 (stereo unspecified) | > 81.3 µM | > 81.3 µM | –
CC(=O)Nc1ccc(C(=O)NN2C(=O)C(Cl)C2c2ccccc2O)cc1 (stereo unspecified) | > 200 µM | 31.6 µM | –
NC(N)=NS(=O)(=O)c1ccc(NCCc2c3ccccc3nc3ccccc23)cc1 | > 200 µM | 66.1 µM | –
O=c1/c(=C/c2ccco2)sc2nc3ccccc3n12 | > 3.89 µM | > 3.89 µM | –
